Laboratory results: US11840584B2, “Simple and green method for preparation of acid modified cyclodextrin” (priority 2020, dated 2023)

test: Curcumin retention in curcumin-cyclodextrin inclusion complex solution left standing 10 days; type: physicochemical; settings: 10 days at room temperature without shielding from light

| curcumin remained in the solution | SMILES |
| --- | --- |
| 36.83% | OC[C@H]1O[C@@H]2O[C@H]3[C@H](O)[C@@H](O)[C@@H](O[C@H]4[C@H](O)[C@@H](O)[C@@H](O[C@H]5[C@H](O)[C@@H](O)[C@@H](O[C@H]6[C@H](O)[C@@H](O)[C@@H](O[C@H]7[C@H](O)[C@@H](O)[C@@H](O[C@H]1[C@H](O)[C@H]2O)O[C@@H]7CO)O[C@@H]6CO)O[C@@H]5CO)O[C@@H]4CO)O[C@@H]3CO [α-cyclodextrin] |
| 32.30% | OC[C@H]1O[C@@H]2O[C@H]3[C@H](O)[C@@H](O)[C@@H](O[C@H]4[C@H](O)[C@@H](O)[C@@H](O[C@H]5[C@H](O)[C@@H](O)[C@@H](O[C@H]6[C@H](O)[C@@H](O)[C@@H](O[C@H]7[C@H](O)[C@@H](O)[C@@H](O[C@H]8[C@H](O)[C@@H](O)[C@@H](O[C@H]1[C@H](O)[C@H]2O)O[C@@H]8CO)O[C@@H]7CO)O[C@@H]6CO)O[C@@H]5CO)O[C@@H]4CO)O[C@@H]3CO [β-cyclodextrin] |
| 21.94% | OC[C@H]1O[C@@H]2O[C@H]3[C@H](O)[C@@H](O)[C@@H](O[C@H]4[C@H](O)[C@@H](O)[C@@H](O[C@H]5[C@H](O)[C@@H](O)[C@@H](O[C@H]6[C@H](O)[C@@H](O)[C@@H](O[C@H]7[C@H](O)[C@@H](O)[C@@H](O[C@H]8[C@H](O)[C@@H](O)[C@@H](O[C@H]9[C@H](O)[C@@H](O)[C@@H](O[C@H]1[C@H](O)[C@H]2O)O[C@@H]9CO)O[C@@H]8CO)O[C@@H]7CO)O[C@@H]6CO)O[C@@H]5CO)O[C@@H]4CO)O[C@@H]3CO [γ-cyclodextrin] |
